The values that follow come from patent US20260364184A1, “COMPOUND BASED ON OXOISOINDOLINYL-SUBSTITUTED TETRAHYDROPYRIMIDINE-DIONE AND USE THEREOF” (GLUETACS THERAPEUTICS (SHANGHAI) CO., LTD., priority 2023, published 2026).

Holding throughout (format): cell-based
Assay [1] has as its system Human myeloid monocytic leukemia cell line (MV-4-11). Description: Inhibition of MV-4-11 cell proliferation (CellTiter luminescent viability). The settings on record: Homo sapiens, MV4-11, Table IE3, CDK4/6 inhibitor-based, 96 hours; for inhibition at 0.01 µM: MV-4-11, 10 nM, read-out: Inhibition Rate at 10 nM (%); for inhibition at 0.5 µM: MV-4-11, 500 nM, read-out: Inhibition Rate at 500 nM (%). The method in brief: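 Cells are seeded in 96-well plates, cultured at 37 °C, 5% CO2, and treated next day with 5-fold serial compound dilutions (stock series from 2000 μM; 0.5 μL into 100 μL medium). Viability is read by CellTiter-Meiluncell luminescence after the set exposure, and IC50 is taken from growth-inhibition curves.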

Assay [2] concerns Human lung cancer cell line (H292). The assay is described as follows: Inhibition of H292 cell proliferation (CellTiter luminescent viability). The settings on record: NCI-H292, Table IE2, CDK4/6 inhibitor-based, 96 hours; for inhibition at 0.01 µM: H292, 10 nM, read-out: Inhibition Rate at 10 nM (%); for inhibition at 0.5 µM: H292, 500 nM, read-out: Inhibition Rate at 500 nM (%).

Assay [3] addresses T1, CDK4 (Homo sapiens, UniProt P11802+Q96SW2).
T1 construct: expression of target proteins in cells; endogenous in cells
The assay is described as follows: Western blot degradation of CDK4. The settings on record: MDA-MB-231 Cell; 24 hours. As to the method:
(§1) Conventional Western blot assay was performed to evaluate the effects of the compounds of the present disclosure on the expression of target proteins in cells.
(§2) (1) Cell Seeding and Protein Harvesting: The selected cells were processed according to the cell seeding procedure and protein harvesting procedure in Table II-2.
(§3) (2) To the collected supernatant, 5×SDS sample loading buffer was added, followed by denaturation at 95 °C for 5 minutes. The denatured samples were then separated by SDS-PAGE electrophoresis on a polyacrylamide gel. Proteins were transferred to a nitrocellulose membrane (0.45 μm NC membrane), blocked with blocking buffer at room temperature for 1 hour, and subjected to antibody incubation and development procedures according to the antibody manufacturer's instructions (Cell Signaling Technology).
(§4) Half-Maximal Degradation Concentration value (the drug concentration required for degrading proteins by 50%, abbreviated as DC50) reads method: comparing the grayscale values of Western blot bands from drug-treated samples with those from blank DMSO-treated controls, and identifying the drug concentration range at which the grayscale value is half that of the DMSO-treated control bands.
(§5) DC50 values can be calculated using ImageJ software to measure grayscale values of Western blot bands from drug-treated samples. The concentration-response curve is fitted to estimate the drug concentration corresponding to half the grayscale value.
(§6) Target protein remaining (%) refers to the percentage of target protein remaining in cells after treatment with protein degrader compounds.
(§7) Calculation method for target protein remaining (%): Use ImageJ software to measure grayscale values of Western blot bands from drug (protein degrader)-treated samples. The grayscale value of drug-treated bands is divided by that of internal control protein bands, and the resulting quotient is normalized to obtain the relative percentage of remaining target protein after protein degrader treatment.
(§8) Target protein degradation rate (%)=1−target protein remaining (%).

In assay [4] the target is T2, CDK6 (Homo sapiens, UniProt Q00534+Q96SW2).
T2 construct: expression of target proteins in cells; endogenous in cells
Description: Western blot degradation of CDK6. The settings on record: MDA-MB-231 Cell; 24 hours. As to the method:
as §1, §2, §3, §4, §5, §6, §7, §8

T1 sequence (P11802 whole entry): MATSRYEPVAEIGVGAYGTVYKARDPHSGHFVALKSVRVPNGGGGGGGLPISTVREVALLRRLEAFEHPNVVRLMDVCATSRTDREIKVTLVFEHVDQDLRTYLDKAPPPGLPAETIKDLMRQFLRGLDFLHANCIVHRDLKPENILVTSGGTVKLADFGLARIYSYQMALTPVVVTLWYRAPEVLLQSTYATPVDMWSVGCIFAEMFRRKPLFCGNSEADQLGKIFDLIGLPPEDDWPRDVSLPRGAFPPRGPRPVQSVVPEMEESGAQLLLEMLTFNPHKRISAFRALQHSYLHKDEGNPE
T1 sequence (Q96SW2 whole entry): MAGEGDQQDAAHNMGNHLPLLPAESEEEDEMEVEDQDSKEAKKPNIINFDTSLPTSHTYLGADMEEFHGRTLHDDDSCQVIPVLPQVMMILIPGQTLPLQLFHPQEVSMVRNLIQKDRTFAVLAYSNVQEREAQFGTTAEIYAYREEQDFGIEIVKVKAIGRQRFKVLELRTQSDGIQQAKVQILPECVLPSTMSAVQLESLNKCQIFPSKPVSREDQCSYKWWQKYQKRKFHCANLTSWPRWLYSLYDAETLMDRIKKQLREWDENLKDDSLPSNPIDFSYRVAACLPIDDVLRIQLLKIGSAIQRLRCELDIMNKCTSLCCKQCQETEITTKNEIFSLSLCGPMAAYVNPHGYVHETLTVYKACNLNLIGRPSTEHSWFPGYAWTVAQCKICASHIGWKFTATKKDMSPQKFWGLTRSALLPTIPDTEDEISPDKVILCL
T1 sequence (Q16531 whole entry partner): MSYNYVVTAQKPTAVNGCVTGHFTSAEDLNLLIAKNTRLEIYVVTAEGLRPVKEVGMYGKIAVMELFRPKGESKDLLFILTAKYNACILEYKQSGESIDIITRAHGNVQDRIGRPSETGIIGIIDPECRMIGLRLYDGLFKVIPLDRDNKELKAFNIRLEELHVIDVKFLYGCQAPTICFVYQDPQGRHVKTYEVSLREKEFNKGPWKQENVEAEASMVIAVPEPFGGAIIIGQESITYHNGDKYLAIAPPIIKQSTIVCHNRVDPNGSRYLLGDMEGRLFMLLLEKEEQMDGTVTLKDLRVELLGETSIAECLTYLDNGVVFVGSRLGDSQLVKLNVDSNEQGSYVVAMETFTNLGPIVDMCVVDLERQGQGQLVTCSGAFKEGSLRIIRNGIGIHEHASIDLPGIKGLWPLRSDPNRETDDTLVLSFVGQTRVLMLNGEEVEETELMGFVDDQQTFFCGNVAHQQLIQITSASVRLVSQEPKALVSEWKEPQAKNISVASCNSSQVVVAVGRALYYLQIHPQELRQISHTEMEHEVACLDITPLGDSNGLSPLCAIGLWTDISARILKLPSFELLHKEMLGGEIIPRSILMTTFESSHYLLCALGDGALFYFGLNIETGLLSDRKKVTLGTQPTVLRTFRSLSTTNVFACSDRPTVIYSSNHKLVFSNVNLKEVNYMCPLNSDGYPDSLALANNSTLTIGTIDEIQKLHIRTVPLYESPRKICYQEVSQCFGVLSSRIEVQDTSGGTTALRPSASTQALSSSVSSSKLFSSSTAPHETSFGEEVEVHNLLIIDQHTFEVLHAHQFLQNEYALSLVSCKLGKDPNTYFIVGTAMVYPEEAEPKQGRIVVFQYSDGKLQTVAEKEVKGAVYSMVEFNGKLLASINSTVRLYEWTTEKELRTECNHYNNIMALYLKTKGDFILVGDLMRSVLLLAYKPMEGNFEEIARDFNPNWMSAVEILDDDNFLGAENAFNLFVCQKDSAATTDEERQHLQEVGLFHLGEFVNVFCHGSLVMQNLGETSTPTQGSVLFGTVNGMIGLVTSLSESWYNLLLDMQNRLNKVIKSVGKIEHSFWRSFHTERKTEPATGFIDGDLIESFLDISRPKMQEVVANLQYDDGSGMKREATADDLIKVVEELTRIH
T2 sequence (Q00534 whole entry): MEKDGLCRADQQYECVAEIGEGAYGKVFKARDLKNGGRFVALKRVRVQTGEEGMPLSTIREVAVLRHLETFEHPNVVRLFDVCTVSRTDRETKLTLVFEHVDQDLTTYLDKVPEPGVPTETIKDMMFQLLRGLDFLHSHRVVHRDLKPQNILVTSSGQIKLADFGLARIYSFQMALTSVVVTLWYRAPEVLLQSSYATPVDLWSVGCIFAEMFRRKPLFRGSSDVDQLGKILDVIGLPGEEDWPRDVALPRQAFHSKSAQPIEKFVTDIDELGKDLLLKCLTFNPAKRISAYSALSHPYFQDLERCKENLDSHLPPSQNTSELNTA
T2 sequence (Q96SW2 whole entry): as the sequence (Q96SW2 whole entry) above
T2 sequence (Q16531 whole entry partner): as the sequence (Q16531 whole entry partner) above

On to `CN(C)C(=O)c1cc2cnc(Nc3ccc(N4CCC(N(C)CC5CCN(c6ccc7c(c6)C(=O)N(N6CCC(=O)NC6=O)C7=O)CC5)CC4)cn3)nc2n1C1CCCC1` [GT-06489, 7-cyclopentyl-2-((5-(4-(((1-(2-(2,4-dioxotetrahydropyrimidin-1(2H)-yl)-1,3-dioxoisoindolin-5-yl)piperidin-4-yl)methyl)(methyl)amino)piperidin-1-yl)pyridin-2-yl)amino)-N,N-dimethyl-7H-pyrrolo[2,3-d]pyrimidine-6-carboxamide], for which, in assay [1], the inhibition at 0.01 µM was 25 to 30% and the inhibition at 0.5 µM lay within 40 to 60%. Moreover, in assay [2], the inhibition at 0.01 µM is 30 to 35% and the inhibition at 0.5 µM was 40 to 60%. The “Degradation of substrate protein CDK4 (substrate protein remaining %)” value in assay [3] is given as “A (0%≤substrate protein remaining %≤80%)”. Besides, the “Degradation of substrate protein CDK6 (substrate protein remaining %)” value in assay [4] was “A (0%≤substrate protein remaining %≤80%)”.
Consider `CN(C)C(=O)c1cc2cnc(Nc3ccc(N4CCN(CC5CCN(c6cccc7c6C(=O)N(N6CCC(=O)NC6=O)C7=O)CC5)CC4)cn3)nc2n1C1CCCC1` [GT-06338, 7-cyclopentyl-2-((5-(4-((1-(2-(2,4-dioxotetrahydropyrimidin-1(2H)-yl)-1,3-dioxoisoindolin-4-yl)piperidin-4-yl)methyl)piperazin-1-yl)pyridin-2-yl)amino)-N,N-dimethyl-7H-pyrrolo[2,3-d]pyrimidine-6-carboxamide], for which, in assay [2], the inhibition at 0.01 µM is 30 to 35% and the inhibition at 0.5 µM fell in the range of 40 to 60%. Besides, the “Degradation of substrate protein CDK4 (substrate protein remaining %)” value in assay [3] is listed as “A (0%≤substrate protein remaining %≤80%)”. Besides, in assay [4], the “Degradation of substrate protein CDK6 (substrate protein remaining %)” value is recorded as “A (0%≤substrate protein remaining %≤80%)”.
In the case of `CN(C)C(=O)c1cc2cnc(Nc3ccc(N4CCC(CN5CCN(C6CCN(c7ccc8c(c7)C(=O)N(N7CCC(=O)NC7=O)C8=O)CC6)CC5)CC4)cn3)nc2n1C1CCCC1` [GT-05205, 7-cyclopentyl-2-((5-(4-((4-(1-(2-(2,4-dioxotetrahydropyrimidin-1(2H)-yl)-1,3-dioxoisoindolin-5-yl)piperidin-4-yl)piperazin-1-yl)methyl)piperidin-1-yl)pyridin-2-yl)amino)-N,N-dimethyl-7H-pyrrolo[2,3-d]pyrimidine-6-carboxamide], the inhibition at 0.01 µM in assay [1] is 20 to 25%; in assay [2] it was 35 to 40%. In addition, the inhibition at 0.5 µM in assay [1] lay in the range of 40 to 60%; in assay [2], 35 to 40%. Besides, in assay [3], the “Degradation of substrate protein CDK4 (substrate protein remaining %)” value is “B (80%<substrate protein remaining %≤100%)”. In addition, the “Degradation of substrate protein CDK6 (substrate protein remaining %)” value in assay [4] is “A (0%≤substrate protein remaining %≤80%)”.
As to `CN(C)C(=O)c1cc2cnc(Nc3ccc(N4CCC(CN5CCN(c6cc7c(cc6F)C(=O)N(N6CCC(=O)NC6=O)C7=O)CC5)CC4)cn3)nc2n1C1CCCC1` [GT-05199, 7-cyclopentyl-2-((5-(4-((4-(2-(2,4-dioxotetrahydropyrimidin-1(2H)-yl)-6-fluoro-1,3-dioxoisoindolin-5-yl)piperazin-1-yl)methyl)piperidin-1-yl)pyridin-2-yl)amino)-N,N-dimethyl-7H-pyrrolo[2,3-d]pyrimidine-6-carboxamide], in assay [2], the inhibition at 0.01 µM fell in the range of 40 to 60% and the inhibition at 0.5 µM is 35 to 40%. Moreover, in assay [3], the “Degradation of substrate protein CDK4 (substrate protein remaining %)” value is “B (80%<substrate protein remaining %≤100%)”. For the same molecule, the “Degradation of substrate protein CDK6 (substrate protein remaining %)” value in assay [4] is “A (0%≤substrate protein remaining %≤80%)”.
On to `CN(C)C(=O)c1cc2cnc(Nc3ccc(N4CCC(N(C)Cc5ccc6c(c5)CN(N5CCC(=O)NC5=O)C6=O)CC4)cn3)nc2n1C1CCCC1` [GT-06487, 7-cyclopentyl-2-((5-(4-(((2-(2,4-dioxotetrahydropyrimidin-1(2H)-yl)-1-oxoisoindolin-5-yl)methyl)(methyl)amino)piperidin-1-yl)pyridin-2-yl)amino)-N,N-dimethyl-7H-pyrrolo[2,3-d]pyrimidine-6-carboxamide], for which, in assay [2], the inhibition at 0.01 µM lay in the range of 25 to 30% and the inhibition at 0.5 µM fell in the range of 40 to 60%. In addition, the “Degradation of substrate protein CDK4 (substrate protein remaining %)” value in assay [3] is “A (0%≤substrate protein remaining %≤80%)”. Further, in assay [4], the “Degradation of substrate protein CDK6 (substrate protein remaining %)” value was “A (0%≤substrate protein remaining %≤80%)”.
